The source of these data is patent publication US20220017572A1, “GEMINOID LIPOPEPTIDE COMPOUNDS AND THEIR USES” (Erasmus University Medical Center Rotterdam, priority 2016, published 2022).

One assay concerns the target human furin (Homo sapiens, UniProt P09958). Kind of assay: Human furin inhibition, hydrolysis of Ac-RVRR-MCA. Format: biochemical. The settings on record: for activity at 2.5 µM: 2.5 μM inhibitor; for activity at 5 µM: 5 μM inhibitor; for activity at 10 µM: 10 μM inhibitor; for activity at 15 µM: 15 μM inhibitor; for activity at 40 µM: 40 μM inhibitor; for Ki: 10 mM Mes.NaOH, pH 7.0, 2.35 μM Ac-RVRR-MCA, 37° C., read-out: Ki hFurin; for activity at 20 µM: 20 μM inhibitor. As to the method: (§1) The enzyme was dissolved in 1 mL MES buffer (10 mM), 1 mM CaCl2, pH 7.0 at 36.5° C. Substrate was added in a concentration 10 times the Km, and the inhibitor compounds of type C (C16-KGnK-C16, C16-KAnK-C16, and C16-RAnR-C16) were added in increasing concentrations (1.0, 5.0, 10.0, 20.0, 40.0 μL) from a stock solution of 2 mg in 1 mL DMSO. The residual activity was measured in a Hitachi F2500 spectrofluorimeter, and plots were fitted using the Grafit® software (Erithracus Software, Horley, Surrey, UK). All the assays were calculated by the Morrison equation for competitive inhibition (eq. 1, [Morrison, 1969]). The amount of substrate used for the tight binding titration experiments follow all the requirements, where [S]<<Km for all enzymes, so the Kiapp=Ki.
However, for furin we used a correction of Ki app, where [S]˜Km (eq. 2).
Range of Proteases Inhibited by Geminoids, Determination of Ki with Z-RR-MCA (Dengue 2 Protease) and Ac-RVRR-MCA (Furin) (SEQ ID NO:60).

The target of a further assay is T1, trypsin (Bos taurus, UniProt P00760).
T1 construct: gene PRSS1
T1 sequence (P00760 24-246): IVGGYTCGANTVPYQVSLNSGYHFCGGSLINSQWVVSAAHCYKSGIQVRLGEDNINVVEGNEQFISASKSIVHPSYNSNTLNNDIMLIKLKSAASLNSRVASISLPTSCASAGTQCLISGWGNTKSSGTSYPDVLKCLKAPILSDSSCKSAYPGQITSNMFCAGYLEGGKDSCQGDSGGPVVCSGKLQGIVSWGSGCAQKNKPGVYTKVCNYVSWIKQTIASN
Put plainly: Trypsin inhibition, fluorimetric enzyme assay. Type of assay: biochemical. As to conditions: for remaining activity at 15 µM: 15 μM inhibitor; for remaining activity at 15 µM / remaining activity at 40 µM / remaining activity at 80 µM / remaining activity at 18 µM / remaining activity at 55 µM / remaining activity at 85 µM: 36.5° C., read-out: Residual Activity (%) Trypsin; for remaining activity at 40 µM: 40 μM inhibitor; for remaining activity at 80 µM: 80 μM inhibitor; for remaining activity at 18 µM: 18 μM inhibitor; for remaining activity at 55 µM: 55 μM inhibitor; for remaining activity at 85 µM: 85 μM inhibitor. The method, then:
as §1
(§2) The first group of gemini-like peptide amphiphiles to be screened was that of C16-K(G or A)nK-C16 (compound type C, with R1=n-C15H31, R2=n-C16H33). […] The results of the Ki determination for trypsin, dengue 2 protease, and human furin are given in Table 1A; some general data for the inhibition by this type of compounds are given in Table 1B. For most compounds in Table 1 the Ki could be derived from competitive inhibition experiments. Judging from the Ki values with the relatively simple substrate Z-RR-MCA, the best inhibitors for dengue 2 protease contain alanine (A) rather than glycine (G).

Assay [1] has as its target T2, dengue 2 protease (Dengue virus type 2, UniProt P14340).
T2 construct: The active site of the dengue protease is in the N-terminal part of NS3
Put plainly: Dengue 2 protease inhibition, hydrolysis of Z-RR-MCA. Format: biochemical, dengue 2 virus. As to conditions: for activity at 2.5 µM: 2.5 μM inhibitor; for activity at 5 µM: 5 μM inhibitor; for activity at 10 µM: 10 μM inhibitor; for activity at 15 µM: 15 μM inhibitor; for activity at 40 µM: 40 μM inhibitor; for activity at 20 µM: 20 μM inhibitor.

In assay [2] the target is T2, dengue 2 protease. The description is as above. Type of assay: biochemical, dengue 2 virus. Also noted: unit not given here. The settings on record: 10 μM Z-RR-MCA, pH 9.0, 37° C., initial activity in UAF/min.
Assay [3] deals with T2, dengue 2 protease. Put plainly: Dengue 2 protease inhibition in presence of Triton X-100 (detergent test, Nature Protocol). The settings on record: 0.05% Triton X-100; for Activity with 0.05% Triton: initial activity in UAF/min. Format: biochemical, dengue 2 virus. From the text:
A further investigation of the interactions of the geminoid inhibitors with biological membranes and with membrane-bound proteases is needed. […] The preparation and tests of peptides symmetrically, asymmetrically and singly alkylated with saturated, short (C6), and unsaturated (C18:1) alkyl tails are in progress.

A further assay has as its target thrombin (Homo sapiens, UniProt P00734). Put plainly: Thrombin inhibition, fluorimetric enzyme assay. Type of assay: biochemical. As to conditions: 36.5° C., read-out: Residual Activity (%) Thrombin; for remaining activity at 18 µM: 18 μM inhibitor; for remaining activity at 55 µM: 55 μM inhibitor; for remaining activity at 85 µM: 85 μM inhibitor. The method, then:
as §1, with “Kiapp=Ki. […]” for “Kiapp=Ki.”

The next assay deals with plasmin (Homo sapiens, UniProt P00747). Kind of assay: Plasmin inhibition, fluorimetric enzyme assay. As to conditions: 36.5° C., read-out: Residual Activity (%) Plasmin. Format: biochemical. As to the method:
as §1, §2

Residues, ends and D or L forms follow the SMILES beside them.

Usually Ki stands for a measure of affinity in units of concentration, obtained from inhibition or displacement.

T2 sequence (P14340 1476-1653): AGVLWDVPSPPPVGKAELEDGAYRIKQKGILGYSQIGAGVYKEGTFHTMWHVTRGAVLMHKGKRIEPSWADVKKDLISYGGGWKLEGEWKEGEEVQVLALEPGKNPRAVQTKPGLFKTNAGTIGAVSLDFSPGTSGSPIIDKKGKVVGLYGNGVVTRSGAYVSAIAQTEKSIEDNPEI
plasmin, sequence (P00747 581-810 limits assumed, species assumed): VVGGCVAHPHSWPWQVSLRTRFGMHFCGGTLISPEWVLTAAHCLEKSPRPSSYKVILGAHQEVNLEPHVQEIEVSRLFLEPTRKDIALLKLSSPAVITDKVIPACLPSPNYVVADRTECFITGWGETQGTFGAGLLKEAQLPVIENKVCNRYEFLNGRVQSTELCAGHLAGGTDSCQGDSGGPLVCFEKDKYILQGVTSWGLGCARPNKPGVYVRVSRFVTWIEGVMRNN
plasmin, sequence (P00747 97-580 partner limits assumed, species assumed): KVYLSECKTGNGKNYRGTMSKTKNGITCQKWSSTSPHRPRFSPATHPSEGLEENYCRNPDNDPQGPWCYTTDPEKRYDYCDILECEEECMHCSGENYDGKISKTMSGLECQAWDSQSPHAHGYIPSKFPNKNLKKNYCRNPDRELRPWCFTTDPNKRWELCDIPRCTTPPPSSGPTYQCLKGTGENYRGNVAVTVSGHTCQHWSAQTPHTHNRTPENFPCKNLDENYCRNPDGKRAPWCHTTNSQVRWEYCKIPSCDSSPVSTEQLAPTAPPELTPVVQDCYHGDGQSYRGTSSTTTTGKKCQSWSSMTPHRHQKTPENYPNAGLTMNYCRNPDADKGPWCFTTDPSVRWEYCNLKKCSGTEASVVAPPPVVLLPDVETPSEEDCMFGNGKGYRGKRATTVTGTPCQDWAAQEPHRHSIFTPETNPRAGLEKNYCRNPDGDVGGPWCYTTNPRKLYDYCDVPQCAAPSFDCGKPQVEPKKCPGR
human furin, sequence (P09958 108-794): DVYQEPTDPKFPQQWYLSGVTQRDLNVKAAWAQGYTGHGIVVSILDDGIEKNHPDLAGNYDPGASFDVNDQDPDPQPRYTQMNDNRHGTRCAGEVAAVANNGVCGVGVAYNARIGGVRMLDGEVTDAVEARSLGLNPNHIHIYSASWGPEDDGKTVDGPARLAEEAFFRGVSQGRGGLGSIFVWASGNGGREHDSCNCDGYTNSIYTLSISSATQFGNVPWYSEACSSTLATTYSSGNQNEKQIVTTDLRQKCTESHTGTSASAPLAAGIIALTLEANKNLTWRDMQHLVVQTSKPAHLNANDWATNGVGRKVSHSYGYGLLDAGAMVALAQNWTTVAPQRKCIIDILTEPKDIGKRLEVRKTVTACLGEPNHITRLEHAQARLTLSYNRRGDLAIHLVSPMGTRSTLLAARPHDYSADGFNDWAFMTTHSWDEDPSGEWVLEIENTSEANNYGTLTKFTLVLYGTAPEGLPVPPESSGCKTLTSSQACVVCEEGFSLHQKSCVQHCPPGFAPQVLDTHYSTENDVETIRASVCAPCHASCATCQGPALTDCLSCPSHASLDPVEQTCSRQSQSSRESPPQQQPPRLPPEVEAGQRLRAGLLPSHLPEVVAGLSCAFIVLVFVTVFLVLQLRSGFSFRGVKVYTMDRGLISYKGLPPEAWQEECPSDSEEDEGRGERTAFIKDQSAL

At human furin (36.5° C.), `CCCCCCCCCCCCCCCCNC(=O)[C@H](CCCCN)NC(=O)[C@H](C)NC(=O)[C@H](C)NC(=O)[C@H](C)NC(=O)[C@H](C)NC(=O)[C@H](CCCCN)NC(=O)CCCCCCCCCCCCCCC` [C16-KAAAAK-C16] (HELM PEPTIDE1{[CCCCCCCCCCCCCCCC(=O)[*:2]].K.A.A.A.A.K.[CCCCCCCCCCCCCCCCN[*:1]]}$$$$V2.0) showed an activity at 2.5 µM of 70%, an activity at 5 µM of 59%, an activity at 10 µM of 52% and an activity at 15 µM of 45%. At human furin (36.5° C.), the activity at 40 µM was 0%. The Ki on human furin came out at 1.75 µM. Besides, at trypsin, the remaining activity at 15 µM was found to be 73%, the remaining activity at 40 µM turned out to be 35% and the remaining activity at 80 µM was 20%. Further, the Ki at dengue 2 protease [1] came out at 2.4 µM. For the same compound, on dengue 2 protease [1] (36.5° C.), the activity at 2.5 µM turned out to be 94%, the activity at 5 µM worked out at 90%, the activity at 10 µM was found to be 85% and the activity at 15 µM is 79%. On dengue 2 protease [1] (36.5° C.), this compound yielded an activity at 40 µM of 45%. Besides, the Activity with inhibitors at dengue 2 protease [2] (20 μM of inhibitor) is 47. Besides, on dengue 2 protease [3] (20 μM of inhibitor), the “% recovery in presence of Triton” value came out at 67% and the “Activity with 0.05% Triton” value came out at 133.

At human furin (36.5° C.), `CCCCCCCCCCCCCCCCNC(=O)[C@H](CCCCN)NC(=O)[C@H](C)NC(=O)[C@H](C)NC(=O)[C@H](C)NC(=O)[C@H](CCCCN)NC(=O)CCCCCCCCCCCCCCC` [C16-KAAAK-C16] (HELM PEPTIDE1{[CCCCCCCCCCCCCCCC(=O)[*:2]].K.A.A.A.K.[CCCCCCCCCCCCCCCCN[*:1]]}$$$$V2.0) returned an activity at 2.5 µM of 73%, an activity at 5 µM of 56%, an activity at 10 µM of 24% and an activity at 15 µM of 10%. The compound further came in with an activity at 40 µM at human furin (36.5° C.) of 0%. For the same compound, the inhibition constant (Ki) at human furin came out at 1.72 µM. At trypsin, the affinity, expressed as Ki, was 40.3 µM; the remaining activity at 15 µM stood at 79%; the remaining activity at 40 µM is 54%; the remaining activity at 80 µM is 40%. The compound also came in with a Ki at dengue 2 protease [1] of 1.41 µM. At dengue 2 protease [1] (36.5° C.), this compound gave an activity at 2.5 µM of 91%, an activity at 5 µM of 85%, an activity at 10 µM of 75% and an activity at 15 µM of 64%. At dengue 2 protease [1] (36.5° C.), this compound yielded an activity at 40 µM of 25%. Also, the Activity with inhibitors on dengue 2 protease [2] (30 μM of inhibitor) is 0. Besides, on dengue 2 protease [3] (30 μM of inhibitor), the “% recovery in presence of Triton” value is listed as 50% and the “Activity with 0.05% Triton” value worked out at 91.

At human furin (36.5° C.), `CCCCCCCCCCCCCCCCNC(=O)[C@H](CCCCN)NC(=O)CNC(=O)CNC(=O)CNC(=O)[C@H](CCCCN)NC(=O)CCCCCCCCCCCCCCC` [C16-KGGGK-C16, C15H31CO-KGGGK-NH—C16H33] (HELM PEPTIDE1{[CCCCCCCCCCCCCCCC(=O)[*:2]].K.G.G.G.K.[CCCCCCCCCCCCCCCCN[*:1]]}$$$$V2.0) had an activity at 5 µM of 68%, an activity at 10 µM of 35%, an activity at 15 µM of 29% and an activity at 20 µM of 20%. Also, on human furin (36.5° C.), the activity at 40 µM was determined as 0%. On trypsin, the Ki was 11.1 µM, the remaining activity at 18 µM turned out to be 84%, the remaining activity at 55 µM amounted to 56% and the remaining activity at 85 µM turned out to be 38%. On dengue 2 protease [1], this compound came in with a Ki of 2.5 µM. On dengue 2 protease [1] (36.5° C.), this compound showed an activity at 5 µM of 86%, an activity at 10 µM of 80%, an activity at 15 µM of 74% and an activity at 20 µM of 65%. At dengue 2 protease [1] (36.5° C.), this compound showed an activity at 40 µM of 51%. This compound gave an Activity with inhibitors at dengue 2 protease [2] (30 μM of inhibitor) of 40. Further, at dengue 2 protease [3] (30 μM of inhibitor), the “% recovery in presence of Triton” value was 75% and the “Activity with 0.05% Triton” value is 154. For the same compound, on thrombin, the remaining activity at 18 µM amounted to 81%, the remaining activity at 55 µM is 64% and the remaining activity at 85 µM was 45%.

On to `CCCCCCCCCCCCCCCCNC(=O)[C@H](CCCCN)NC(=O)[C@H](CCCCN)NC(=O)CCCCCCCCCCCCCCC` [C16-KK-C16, C15H31CO-KK-NH—C16H33], for which the activity at 20 µM at human furin (36.5° C.) came out at 10%; on dengue 2 protease [1] (36.5° C.) it was 58%. For the same compound, the activity at 50 µM came out at 5% at human furin (50 μM inhibitor, 36.5° C.) and 37% at dengue 2 protease [1] (50 μM inhibitor, 36.5° C.). Also, the activity at 100 µM on human furin (100 μM inhibitor, 36.5° C.) was 0%; on dengue 2 protease [1] (100 μM inhibitor, 36.5° C.), 7%. For the same compound, the values for the Ki at trypsin and at dengue 2 protease [1] were 84.7 µM and 5.37 µM, respectively. Moreover, the remaining activity at 15 µM was determined as 82% on trypsin, 62% on thrombin (15 μM inhibitor) and 39% at plasmin (15 μM inhibitor). In addition, the remaining activity at 55 µM amounted to 58% on trypsin, 48% at thrombin and 11% on plasmin (55 μM inhibitor). The remaining activity at 85 µM on trypsin came out at 43%; on thrombin, 37%; on plasmin (85 μM inhibitor), 4%. In addition, the Activity with inhibitors on dengue 2 protease [2] (30 μM of inhibitor) is 48. The “% recovery in presence of Triton” value on dengue 2 protease [3] (30 μM of inhibitor) was 52%. For the same compound, the “Activity with 0.05% Triton” value at dengue 2 protease [3] (30 μM of inhibitor) came out at 113.

Turning to `CCCCCCCCCCCCCCCCNC(=O)[C@H](CCCCN)NC(=O)CNC(=O)CNC(=O)CNC(=O)CNC(=O)[C@H](CCCCN)NC(=O)CCCCCCCCCCCCCCC` [C16KG4KC16] (HELM PEPTIDE1{[CCCCCCCCCCCCCCCC(=O)[*:2]].K.G.G.G.G.K.[CCCCCCCCCCCCCCCCN[*:1]]}$$$$V2.0), at human furin (36.5° C.), the activity at 5 µM was 82%, the activity at 10 µM stood at 64%, the activity at 15 µM worked out at 54% and the activity at 20 µM amounted to 23%. At human furin (36.5° C.), the activity at 40 µM turned out to be 0%. Besides, at trypsin, the remaining activity at 18 µM is 81%, the remaining activity at 55 µM came to 67% and the remaining activity at 85 µM came out at 53%. Moreover, on dengue 2 protease [1], the Ki was found to be 1.37 µM. At dengue 2 protease [1] (36.5° C.), this compound returned an activity at 5 µM of 86%, an activity at 10 µM of 78%, an activity at 15 µM of 70% and an activity at 20 µM of 60%. In addition, the activity at 40 µM at dengue 2 protease [1] (36.5° C.) was found to be 45%. The Activity with inhibitors on dengue 2 protease [2] (30 μM of inhibitor) is 0. Besides, on dengue 2 protease [3] (30 μM of inhibitor), the “% recovery in presence of Triton” value stood at 63% and the “Activity with 0.05% Triton” value is 125. In addition, on thrombin, the remaining activity at 18 µM is 88%, the remaining activity at 55 µM was 59% and the remaining activity at 85 µM is 41%.
